Test results: ChEMBL document CHEMBL1134187, “Synthesis and antitumor evaluation of novel monoindolyl-4-trifluoromethylpyridines and bisindolyl-4-trifluoromethylpyridines” (Bioorg Med Chem Lett, 2001)

How the values were obtained:
A549 [1] = assay: Concentration for in vitro cytotoxicity against A-549 human lung tumor cells; assay type: functional, cell-based
A549 [2] = assay: Inhibition of proliferation of A549 cells at concentration of 0.1 uM was determined; assay type: functional; conditions: Homo sapiens
A549 [3] = assay: Inhibition of proliferation of A549 cells at concentration of 100 uM was determined; assay type: functional; conditions: Homo sapiens
A549 [4] = assay: Inhibition of proliferation of A549 cells at concentration of 10 uM was determined; assay type: functional; conditions: Homo sapiens
A549 [5] = assay: Inhibition of proliferation of A549 cells at concentration of 1 uM was determined; assay type: functional; conditions: Homo sapiens
P388 [6] = assay: Concentration for in vitro cytotoxicity against murine P388 leukemia cells; assay type: functional, cell-based; conditions: Mus musculus
P388 [7] = assay: Inhibition of proliferation of […] at concentration of 10 uM was determined; assay type: functional; conditions: Mus musculus
P388 [8] = assay: Inhibition of proliferation of […] at concentration of 0.1 uM was determined; assay type: functional; conditions: Mus musculus
P388 [9] = assay: Inhibition of proliferation of […] at concentration of 100 uM was determined; assay type: functional; conditions: Mus musculus
P388 [10] = assay: Inhibition of proliferation of […] at concentration of 1 uM was determined; assay type: functional; conditions: Mus musculus

Row | Structure (SMILES) | IC50 (A549 [1]) [µM] | inhibition at 0.1 µM (A549 [2]) [%] | inhibition at 100 µM (A549 [3]) [%] | inhibition at 10 µM (A549 [4]) [%] | inhibition at 1 µM (A549 [5]) [%] | IC50 (P388 [6]) [µM] | inhibition at 10 µM (P388 [7]) [%] | inhibition at 0.1 µM (P388 [8]) [%] | inhibition at 100 µM (P388 [9]) [%] | inhibition at 1 µM (P388 [10]) [%]
1 | COc1ccc2c(c1)c(-c1cc(C(F)(F)F)c(C#N)c(-c3cn(S(=O)(=O)c4ccc(C)cc4)c4ccc(OC)cc34)n1)cn2S(=O)(=O)c1ccc(C)cc1 | > 100 | 25 | 17.7 | 25.2 | 24.4 | > 100 | 3.5 | 1.7 | – | –
2 | Cc1ccc(S(=O)(=O)n2cc(-c3cc(C(F)(F)F)cc(-c4cn(S(=O)(=O)c5ccc(C)cc5)c5cc(Br)ccc45)n3)c3ccc(Br)cc32)cc1 | > 100 | 25.8 | 49.2 | 32 | 30.7 | > 100 | 15.1 | 8.1 | 8.9 | 10
3 | Cc1ccc(S(=O)(=O)n2cc(-c3cc(C(F)(F)F)ccn3)c3cc(OCc4ccccc4)ccc32)cc1 | > 100 | 16.9 | 35.9 | 9.9 | 23.2 | > 100 | – | – | 2.2 | –
4 | COc1ccc2c(c1)c(-c1cc(C(F)(F)F)ccn1)cn2S(=O)(=O)c1ccc(C)cc1 | > 100 | 16.9 | 51.8 | 14.1 | 23.2 | > 100 | – | – | 15.6 | –
5 | COc1ccc2c(-c3cc(C(F)(F)F)c(C#N)c(-c4cn(S(=O)(=O)c5ccc(C)cc5)c5cc(OC)ccc45)n3)cn(S(=O)(=O)c3ccc(C)cc3)c2c1 | > 100 | 33 | 21.2 | 13.3 | 26.7 | > 100 | 10.1 | 5.1 | 3.8 | 9.1
6 | Cc1ccc(S(=O)(=O)n2cc(-c3cc(C(F)(F)F)c(C#N)c(-c4cn(S(=O)(=O)c5ccc(C)cc5)c5ccc(Br)cc45)n3)c3cc(Br)ccc32)cc1 | 78 | 9.8 | 70.6 | 9.6 | 17.4 | > 100 | – | – | 8.2 | 3.7
7 | COc1ccc2c(c1)c(-c1cc(C(F)(F)F)cc(-c3cn(S(=O)(=O)c4ccc(C)cc4)c4ccc(OC)cc34)n1)cn2S(=O)(=O)c1ccc(C)cc1 | > 100 | 16.7 | 41.7 | 22.2 | 7.1 | > 100 | 5 | 9.3 | 13.8 | 7
8 | COc1ccc2c(-c3cc(C(F)(F)F)cc(-c4cn(S(=O)(=O)c5ccc(C)cc5)c5cc(OC)ccc45)n3)cn(S(=O)(=O)c3ccc(C)cc3)c2c1 | 1.7 | 1.7 | 97.1 | 28.8 | 35.5 | 4.3 | 92.8 | – | 99.9 | –
9 | Cc1ccc(S(=O)(=O)n2cc(-c3cc(C(F)(F)F)c(C#N)c(-c4cn(S(=O)(=O)c5ccc(C)cc5)c5cc(Br)ccc45)n3)c3ccc(Br)cc32)cc1 | > 100 | 23.8 | 48.1 | 27.6 | 18.8 | > 100 | 5.7 | 3.1 | 1.3 | 1.7
10 | Cc1ccc(S(=O)(=O)n2cc(-c3cc(C(F)(F)F)ccn3)c3ccccc32)cc1 | 25 | 25 | 68.4 | 35 | 23.8 | > 100 | – | – | 49.9 | 10.5
11 | Cc1ccc(S(=O)(=O)n2cc(-c3cc(C(F)(F)F)ccn3)c3cc(Br)ccc32)cc1 | 4.1 | 38.9 | 98 | 20.6 | 32.8 | > 100 | 21.9 | 9.7 | 32.6 | 17.8
12 | Cc1ccc(S(=O)(=O)n2cc(-c3cc(C(F)(F)F)cc(-c4cn(S(=O)(=O)c5ccc(C)cc5)c5ccccc45)n3)c3ccccc32)cc1 | 23 | 37.5 | 69.3 | 27.6 | 36.7 | > 100 | 23.5 | 15.7 | 14.7 | 20.9
